Laboratory results from patent US20260258036A1, “INHIBITORS OF HUMAN ALDOSTERONE SYNTHASE (CYP11B2)” («TARGET MEDICALS» LIMITED LIABILITY COMPANY, priority 2022, published 2026).

Target: T1, recombinant CYP11B2 (Homo sapiens, UniProt P19099)
T1 sequence (P19099 25-503): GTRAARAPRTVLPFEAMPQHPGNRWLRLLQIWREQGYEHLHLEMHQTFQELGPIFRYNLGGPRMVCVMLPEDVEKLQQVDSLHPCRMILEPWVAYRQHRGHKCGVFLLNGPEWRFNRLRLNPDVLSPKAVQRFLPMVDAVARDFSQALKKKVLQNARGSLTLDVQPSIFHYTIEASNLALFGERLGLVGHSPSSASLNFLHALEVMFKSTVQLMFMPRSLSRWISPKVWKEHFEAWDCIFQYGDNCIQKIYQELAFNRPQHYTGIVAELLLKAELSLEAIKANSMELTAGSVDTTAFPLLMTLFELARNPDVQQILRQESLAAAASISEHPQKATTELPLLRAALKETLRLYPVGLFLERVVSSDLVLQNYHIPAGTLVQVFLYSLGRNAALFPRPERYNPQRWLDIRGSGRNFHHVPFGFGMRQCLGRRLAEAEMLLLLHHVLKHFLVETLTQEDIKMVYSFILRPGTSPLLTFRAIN
Test: Inhibition of CYP11B2 activity in a reconstructed enzyme system (HPLC with UV detector)
Type: biochemical
Conditions: compounds 1_xx; test compound final concentration ≤2 μM; corticosterone substrate; 30 minutes at 37° C.; read-out: Level of CYP11B2 activity inhibition
Method: The authors of the present invention investigated the activity of the compounds according to the invention as inhibitors of CYP11 B2 when analyzed in a reconstructed system containing 0.5 μm recombinant CYP1 1B2, 0.3 μm human adrenodoxin reductase, 2 μm human adrenodoxin, 100 μm corticosterone as a control reaction to detect the formation of a product with using an HPLC system with a UV detector. The test compound is added to the reaction mixture to a final concentration of ≤2 μM. The concentrated protein mixture was diluted with buffer to a final volume of 0.5 ml, pre-incubated for 10 min at 37° C., followed by the addition of the substrate. Reactions are initiated by adding NADPH (nicotinamide adenine dinucleotide phosphate) to a final concentration of 0.25 mM with a regenerating system (glucose-6-phosphate and glucose-6-phosphate dehydrogenase) in 25 mM potassium phosphate buffer, pH 7.4, containing 0.1 mM DTT (dithiothreitol), 0.1% Tween-20.4 mM MgCl2 and incubated at 37° C. After 30 minutes of incubation, the reaction is stopped by adding 5 ml of dichloromethane. The organic phase is isolated by centrifugation, evaporation, dissolution in ethanol and transferred to a vial for HPLC studies. A C18 Luna 100 Å 250×4, 6 mm column was used on an Agilent Technologies 1200 series instrument (USA) with ethanol as the mobile phase.
Activity (a) is calculated as the amount of product in nmol per minute per 1 nmol of CYP.
where k is the correction factor (k=1 is used as the molar extinction coefficients of steroid substrates and products similar at a detection wavelength of 254 nm), As is the peak area of the substrate, cs is the concentration of the substrate, Ap is the peak area of the product, ce is the concentration of CYP (cytochrome P450), t is the reaction time.
The level of inhibition of CYP11 B2 activity is expressed as a percentage, where 0% is defined as no inhibition in reactions without test compound and 100% is absolute inhibition by test compound.

## COc1c(C)cc(S(=O)(=O)n2ccc3c(-c4ccc(C)cn4)cncc32)cc1C [Compound 1_01, 1-(4-methoxy-3,5-dimethylphenyl)sulfonyl-4-(5-methyl-2-pyridyl)pyrrolo[2,3-c]pyridine]
  inhibition at 2 µM: 50 to 100%

## COc1c(C)cc(S(=O)(=O)n2ccc3c(-c4cnc(C)cn4)cncc32)cc1C [Compound 1_02, 1-((4-methoxy-3,5-dimethylphenyl)sulfonyl)-4-(5-methylpyrazin-2-yl)-1H-pyrrolo[2,3-c]pyridine]
  inhibition at 2 µM: 50 to 100%

## COc1c(C)cc(S(=O)(=O)n2ccc3c(-c4ncc(C)cn4)cncc32)cc1C [Compound 1_03, 1-((4-methoxy-3,5-dimethylphenyl)sulfonyl)-4-(5-methylpyrimidin-2-yl)-1H-pyrrolo[2,3-c]pyridine]
  inhibition at 2 µM: 50 to 100%

## COc1c(C)cc(S(=O)(=O)n2ccc3c(-c4ccc(C)nn4)cncc32)cc1C [Compound 1_04, 1-(4-methoxy-3,5-dimethylphenyl)sulfonyl-4-(6-methylpyridazin-3-yl)pyrrolo[2,3-c]pyridine]
  inhibition at 2 µM: 50 to 100%

## COc1c(C)cc(S(=O)(=O)n2ccc3c(-c4ccc(S(C)(=O)=O)cn4)cncc32)cc1C [Compound 1_05, 1-(4-methoxy-3,5-dimethylphenyl)sulfonyl-4-(5-methylsulfonyl-2-pyridyl)pyrrolo[2,3-c]pyridine]
  inhibition at 2 µM: 20 to 100%

## CC(C)Oc1c(F)cc(S(=O)(=O)n2ccc3c(-c4ccccn4)cncc32)cc1F [Compound 1_06, 1-((3,5-difluoro-4-isopropoxyphenyl)sulfonyl)-4-(pyridin-2-yl)-1H-pyrrolo[2,3-c]pyridine]
  inhibition at 2 µM: 50 to 100%

## O=S(=O)(c1cc(F)c(OCC2CC2)c(F)c1)n1ccc2c(-c3ccccn3)cncc21 [Compound 1_07, 1-((4-(cyclopropylmethoxy)-3,5-difluorophenyl)sulfonyl)-4-(pyridin-2-yl)-1H-pyrrolo[2,3-c]pyridine]
  inhibition at 2 µM: 50 to 100%

## O=S(=O)(c1cc(F)c(OCC(F)F)c(F)c1)n1ccc2c(-c3ccccn3)cncc21 [Compound 1_08, 1-((4-(2,2-difluoroethoxy)-3,5-difluorophenyl)sulfonyl)-4-(pyridin-2-yl)-1H-pyrrolo[2,3-c]pyridine]
  inhibition at 2 µM: 50 to 100%

## CN(C)c1c(F)cc(S(=O)(=O)n2ccc3c(-c4ccccn4)cncc32)cc1F [Compound 1_09, 2,6-difluoro-N,N-dimethyl-4-((4-(pyridin-2-yl)-1H-pyrrolo[2,3-c]pyridin-1-yl)sulfonyl)aniline]
  inhibition at 2 µM: 50 to 100%

## O=S(=O)(c1cc(F)c(N2CCOCC2)c(F)c1)n1ccc2c(-c3ccccn3)cncc21 [Compound 1_10, 4-(2,6-difluoro-4-((4-(pyridin-2-yl)-1H-pyrrolo[2,3-c]pyridin-1-yl)sulfonyl)phenyl)morpholine]
  inhibition at 2 µM: 50 to 100%

## Nc1c(F)cc(S(=O)(=O)n2ccc3c(-c4ccccn4)cncc32)cc1F [Compound 1_11, 2,6-difluoro-4-((4-(pyridin-2-yl)-1H-pyrrolo[2,3-c]pyridin-1-yl)sulfonyl)aniline]
  inhibition at 2 µM: 50 to 100%

## CN1CCN(c2c(F)cc(S(=O)(=O)n3ccc4c(-c5ccccn5)cncc43)cc2F)CC1 [Compound 1_12, 1-((3,5-difluoro-4-(4-methylpiperazin-1-yl)phenyl)sulfonyl)-4-(pyridin-2-yl)-1H-pyrrolo[2,3-c]pyridine]
  inhibition at 2 µM: 50 to 100%

## O=S(=O)(c1cc(F)c(NC2CC2)c(F)c1)n1ccc2c(-c3ccccn3)cncc21 [Compound 1_13, N-cyclopropyl-2,6-difluoro-4-((4-(pyridin-2-yl)-1H-pyrrolo[2,3-c]pyridin-1-yl)sulfonyl)aniline]
  inhibition at 2 µM: 50 to 100%

## CN(c1c(F)cc(S(=O)(=O)n2ccc3c(-c4ccccn4)cncc32)cc1F)C1CCC1 [Compound 1_14, N-cyclobutyl-2,6-difluoro-N-methyl-4-((4-(pyridin-2-yl)-1H-pyrrolo[2,3-c]pyridin-1-yl)sulfonyl)aniline]
  inhibition at 2 µM: 50 to 100%

## CN(C)c1c(F)cc(S(=O)(=O)N2CCc3c(-c4ccccn4)cncc32)cc1F [Compound 1_15, 2,6-difluoro-N,N-dimethyl-4-((4-(pyridin-2-yl)-2,3-dihydro-1H-pyrrolo[2,3-c]pyridin-1-yl)sulfonyl)aniline]
  inhibition at 2 µM: 20 to 100%

## O=S(=O)(c1cc(F)c(O)c(F)c1)N1CCc2c(-c3ccccn3)cncc21 [Compound 1_16, 2,6-difluoro-4-((4-(pyridin-2-yl)-2,3-dehydro-H-pyrrolo[2,3-c]pyridin-1-yl)sulfonyl)phenol]
  inhibition at 2 µM: 50 to 100%

## CN1CCN(c2c(F)cc(S(=O)(=O)N3CCc4c(-c5ccccn5)cncc43)cc2F)CC1 [Compound 1_17, 1-((3,5-difluoro-4-(4-methylpiperazin-1-yl)phenyl)sulfonyl)-4-(pyridin-2-yl)-2,3-dihydro-1H-pyrrolo[2,3-c]pyridine]
  inhibition at 2 µM: 50 to 100%

## COc1c(F)cc(S(=O)(=O)n2ccc3c(-c4ccccn4)cncc32)cc1F [Compound 1_18, 1-((3,5-difluoro-4-methoxyphenyl)sulfonyl)-4-(pyridin-2-yl)-1H-pyrrolo[2,3-c]pyridine]
  inhibition at 2 µM: 50 to 100%

## CC1CN(c2c(F)cc(S(=O)(=O)n3ccc4c(-c5ccccn5)cncc43)cc2F)C1 [Compound 1_19, 1-((3,5-difluoro-4-(3-methylazetidin-1-yl)phenyl)sulfonyl)-4-(pyridin-2-yl)-1H-pyrrolo[2,3-c]pyridine]
  inhibition at 2 µM: 50 to 100%

## Cc1csc(N(C)c2c(F)cc(S(=O)(=O)n3ccc4c(-c5ccccn5)cncc43)cc2F)n1 [Compound 1_20, N-(2,6-difluoro-4-((4-(pyridin-2-yl)-1H-pyrrolo[2,3-c]pyridin-1-yl)sulfonyl)phenyl)-N,4-dimethylthiazol-2-amine]
  inhibition at 2 µM: 50 to 100%

## CN1CCC(Nc2c(F)cc(S(=O)(=O)n3ccc4c(-c5ccccn5)cncc43)cc2F)CC1 [Compound 1_21, N-(2,6-difluoro-4-((4-(pyridin-2-yl)-1H-pyrrolo[2,3-c]pyridin-1-yl)sulfonyl)phenyl)-1-methylpiperidin-4-amine]
  inhibition at 2 µM: 50 to 100%

## CN(C)CCNc1c(F)cc(S(=O)(=O)n2ccc3c(-c4ccccn4)cncc32)cc1F [Compound 1_22, N1-(2,6-difluoro-4-((4-(pyridin-2-yl)-1H-pyrrolo[2,3-c]pyridin-1-yl)sulfonyl)phenyl)-N2,N2-dimethylethane-1,2-diamine]
  inhibition at 2 µM: 50 to 100%

## O=S(=O)(c1cc(F)c(N2CCSCC2)c(F)c1)n1ccc2c(-c3ccccn3)cncc21 [Compound 1_23, 4-(2,6-difluoro-4-((4-(pyridin-2-yl)-1H-pyrrolo[2,3-c]pyridin-1-yl)sulfonyl)phenyl)thiomorpholine]
  inhibition at 2 µM: 50 to 100%

## CN1CC2CN(c3c(F)cc(S(=O)(=O)n4ccc5c(-c6ccccn6)cncc54)cc3F)CC2C1 (stereo not drawn) [Compound 1_24, 1-((3,5-difluoro-4-(5-methylhexahydropyrrolo[3,4-c]pyrrol-2(1H)-yl)phenyl)sulfonyl)-4-(pyridin-2-yl)-1H-pyrrolo [2,3-s]pyridine]
  inhibition at 2 µM: 20 to 100%

## CN1CCC2CN(c3c(F)cc(S(=O)(=O)n4ccc5c(-c6ccccn6)cncc54)cc3F)CC2C1 (stereo not drawn) [Compound 1_25, 1-((3,5-difluoro-4-(5-methyloctahydro-2H-pyrrolo[3,4-c]pyridin-2-yl)phenyl)sulfonyl)-4-(pyridin-2-yl)-1H-pyrrolo[2,3-c]pyridine]
  inhibition at 2 µM: 50 to 100%

## O=S(=O)(c1cc(F)c(N2CCC3(CCNC3)C2)c(F)c1)n1ccc2c(-c3ccccn3)cncc21 (stereo not drawn) [Compound 1_26, 2-(2,6-difluoro-4-((4-(pyridin-2-yl)-1H-pyrrolo[2,3-c]pyridin-1-yl)sulfonyl)phenyl)-2,7-diazaspiro[4.4]nonane]
  inhibition at 2 µM: 50 to 100%

## CN1CCN(c2c(F)cc(S(=O)(=O)n3ccc4c(-c5nc(C#N)co5)cncc43)cc2F)CC1 [Compound 1_27, 2-(1-((3,5-difluoro-4-(4-methylpiperazin-1-yl)phenyl)sulfonyl)-1H-pyrrolo[2,3-c]pyridin-4-yl)oxazol-4-carbonitrile]
  inhibition at 2 µM: 50 to 100%
